Results published in patent publication US20120136033A1, “Small Molecule Antagonists of Phosphatidylinositol-3,4,5-Triphosphate (PIP3) and Uses Thereof” (President and Fellows of Harvard College, priority 2009, published 2012).

Tests used:
PI3K-PDK1-Akt pathway = PI3K-PDK1-Akt pathway phosphorylation events in U87MG cells; format: cell-based, human
Description: The effect of PIT-1 on PIP3-mediated signaling was examined in U87MG glioblastoma cells, which show elevated basal levels of PIP3 due to the loss of PTEN. Pore N et al. (2003) Cancer Res 63:236-41.

U87MG cells [1] = assay: U87MG cell viability, ATP assay; format: cell-based, human
Description: U87MG cells were incubated with PITs (12.5-100 μM) for 48 hr. Cell viability was determined using ATP assay.
Based on the critical role of PIP3-dependent Akt signaling in the regulation of cell survival, the effect of PIT-1 on the cancer cell viability was tested. Cancer cells were seeded into 96-well plates (white plates for ATP assay; black plates for fluorescent assay; clear plates for MTS assay) at the density of 5-10×10^3 cells per well in 100 μl of the appropriate media. Compounds were added at a series of concentrations and incubated for different times. For the ATP assay, a luminescence-based commercial kit (CellTiter-Glo, Promega, Madison, Wis.) was used. Thirty microliters of cell lysis/ATP detection reagent was added to each well, mixed for 10 min at room temperature, and the luminescence was measured using a Wallac Victor 3 plate reader (Perkin-Elmer, Wellesley, Mass.). For the MTS assay, a CellTiter 96 AQueous Non-Radioactive Cell Proliferation Assay Kit (Promega, Madison, Wis., USA) was used. Twenty microliters of the combined MTS/PMS solution was added into each well, incubated for 4 hr at 37° C., and the absorbance at 490 nm was measured using a Wallac Victor 3 plate reader. For the Sytox cell death assay, measuring loss of plasma membrane integrity, cells were incubated with 1 μM Sytox Green reagent (Molecular Probes, Eugene, Oreg.) for 30 min at 37° C. and the fluorescence intensity was measured using Wallac Victor 3 plate reader with excitation at 485 nm and emission at 545 nm. Next, 5 μl of 20% (v/v) Triton X-100 solution was added to each well and incubated for 1 hr at 37° C., and the signal was measured again. The ratio of values (percentage of dead cells in each well) before and after Triton X-100 treatment was calculated and normalized to the relevant controls not subjected to the cytotoxic stimuli. IC50 values were determined using Origin6 software (MicroCal, LLC, Northampton, Mass.).

human cancer cells = assay: transwell (Boyden chamber) migration of cancer cells; format: cell-based
Description: Two models of cell migration were used, a transwell migration model and a wound closure model. Migration of cancer and endothelial cells was evaluated using 24-transwell Boyden chamber (Costar, Bedford, Mass.) with a polystyrene membrane (6.5 mm diameter, 10 μm thickness, and 8 μm pore size). Cells were suspended in serum-free media and seeded in the upper compartment of each well (2×10^4 cells/well) in the presence or absence of different compounds at the indicated concentrations. The lower compartment contained 600 μl of serum-free culture media supplemented with growth factors. After an 8-hr incubation at 37° C., cells were fixed and stained with 0.1% crystal violet. Non-migrating cells on the upper surface of the filter were removed, and the stained cells that migrated to the lower side were photographed using a phase-contrast microscope (Nikon, Japan) in five random fields. The cells were lysed with 10% acetic acid, and colorimetric determination was made at 595 nm using Wallac Victor 3 plate reader.

[2] = solubility / precipitation; format: physicochemical; conditions: 300 μM, unencapsulated, cell media
Description: This method has been reported to be efficient for in vivo targeting of cancer cells by other poorly soluble anti-cancer drugs, such as m-porphyrin, tamoxifen, and taxol. Gao Z et al. (2003) J Drug Target 11:87-92; Torchilin V P et al. (2003) Proc Natl Acad Sci USA 100:6039-44.
The size of the DM-PIT-1-loaded micelles was about 15 nm with a narrow size distribution.

4T1 breast cancer = assay: syngeneic 4T1 breast tumor growth in BALB/c mice; format: in vivo, mouse
Description: After inoculation of tumor cells, DM-PIT-1 or DM-PIT-1-M were administered i.v. daily at doses of 0.4 mg/kg and 1 mg/kg, respectively, for 8 days. Tumor volumes as measured every two days are shown.
The effect of intravenous (i.v.) administration of both unencapsulated DM-PIT-1 in PBS and DM-PIT-1-M on the syngeneic 4T1 breast cancer growth in BALB/c mice was examined. 4T1 metastatic breast cancer cells were first cultured in vitro in DMEM medium containing 10% FBS and antibiotics. After re-suspension in PBS, the 4T1 cancer cells (8×10^4) were injected s.c. into axillary regions of BALB/c mice. The treatment with PIT-1 began on day 11 after inoculation of tumor cells, i.e., when tumors were palpable, but before tumors are precisely measurable (˜50 mm^3). Working solutions of all PIT-1-formulations were made in sterile 0.9% NaCl before injection into mice. Free DM-PIT-1 and micellar DM-PIT-1 were administered i.v. daily at doses of 0.4 and 1 mg/kg, respectively, for 8 days. If the tumor size reached approx. 1000 mm^3, the mice were euthanized using carbon dioxide (CO2) prior to cervical dislocation. Seven mice per group were used. The tumor volume (V) was measured every two days by microcaliper for 8 days. Tumor volume was calculated according to the formula ([…])/2, where α is the longest and b is the shortest diameter of tumor, respectively.

CD31 = assay: tumor angiogenesis in vivo, microvasculature marker CD31; conditions: mouse
Description: Tumor tissues were fixed in phosphate-buffered formalin, embedded in paraffin, cut in 4 μM thickness, and applied to slides. The slides were deparaffinized in xylenes using three changes for 5 min each, and hydrated gradually through graded alcohols: 100% ethanol twice for 10 min each, 95% ethanol twice for 10 min each, and then deionized water for 1 min with stirring. For antigen unmasking, slides were placed in a container, covered with 10 mM sodium citrate buffer, pH 6.0, and heated in a convection steamer for 1 hr. The slides were washed in deionized water three times for 2 min each, blocked with 5% normal goat blocking serum for 30 min, incubated with goat anti-CD31 primary antibody for 1 hr, and incubated with an Alexa Fluor 488-conjugated secondary antibody for 30 min. The slides were analyzed and photographed using a fluorescent microscope. TUNEL staining was performed using FragEL kit according to manufacturer's instructions (Calbiochem).
In view of the significant inhibitory effect of PIT-1 on angiogenesis observed in vitro, the extent of angiogenesis in DM-PIT-1-treated tumors was examined in vivo using microvasculature marker CD31. […] Suppression of angiogenesis also likely contributed to the suppression of tumor growth by DM-PIT-1 treatment in vivo, considering a relatively low dose of the compound used in the experiments.

[3] = tested on: SV40-transformed mouse adult lung fibroblasts; assay: loss of viability, Akt1-expressing vs Akt1-3 triple knockout lung fibroblasts; format: cell-based; conditions: P<0.01
Description: Shaughnessy J D (2008) Nature 454:172-3; Weinstein I G (2002) Science 297:63-4. Therefore, the possibility that PIT-1 may cause preferential cell death in the cells containing elevated PIP3 levels was examined. […] Li D M et al. (1998) Proc Natl Acad Sci USA 95:15406-11. […] This observation is consistent with the notion that PTEN-deficient cancer cells become overly dependent on PIP3 signaling and, therefore, are hypersensitive to disruption of this pathway compared to wild-type PTEN-expressing cells. Neshat M S et al. (2001) Proc Natl Acad Sci USA 98:10314-9.

cells = assay: cell death with inhibitors of mitochondrial respiration and ATP synthase; format: cell-based
Description: Elstrom R L et al. (2004) Cancer Res 64:3892-9.

[4] = tested on: PH domains of Akt, PDK1, and IRS1; conditions: cited from earlier work
[5] = cited from earlier work
U87MG cells [6] = assay: sensitization of U87MG cells to killing by TRAIL, ATP assay; format: cell-based, human
Description: FIG. 10 is a bar graph depicting that PITs, as well as Akt inhibitor VIII, sensitize U87MG cells to killing by TRAIL. U87MG cells were incubated with 50 μM PIT-1, PIT-2, PIT-1i-1 or 10 μM Akt inhibitor VIII in the presence or absence of 10 ng/ml TRAIL for 48 hr, followed by cell viability analysis using ATP assay.
Based on the critical role of PIP3-dependent Akt signaling in the regulation of cell survival, the effect of PIT-1 on the cancer cell viability was tested. Cancer cells were seeded into 96-well plates (white plates for ATP assay; black plates for fluorescent assay; clear plates for MTS assay) at the density of 5-10×10^3 cells per well in 100 μl of the appropriate media. […] For the ATP assay, a luminescence-based commercial kit (CellTiter-Glo, Promega, Madison, Wis.) was used. Thirty microliters of cell lysis/ATP detection reagent was added to each well, mixed for 10 min at room temperature, and the luminescence was measured using a Wallac Victor 3 plate reader (Perkin-Elmer, Wellesley, Mass.). […] Twenty microliters of the combined MTS/PMS solution was added into each well, incubated for 4 hr at 37° C., and the absorbance at 490 nm was measured using a Wallac Victor 3 plate reader. […] Next, 5 μl of 20% (v/v) Triton X-100 solution was added to each well and incubated for 1 hr at 37° C., and the signal was measured again. […]

Cc1cc(C)cc(C(=O)NC(=S)Nc2cc([N+](=O)[O-])ccc2O)c1 [DM-PIT-1]
activity compared to PIT-1 in inhibition of PI3K-PDK1-Akt signaling (PI3K-PDK1-Akt pathway): increased activity
activity compared to PIT-1 in inducing cell death in U87MG cells (U87MG cells [1]): increased activity
activity compared to PIT-1 in inhibition of cell migration (human cancer cells): increased activity
precipitation in cell media at 300 μM [2]: significant precipitation
tumor growth in vivo compared to control (4T1 breast cancer; 8-day administration, P<0.01): significantly attenuated tumor growth
reduction of tumor volume as compared to control (4T1 breast cancer; day 8, i.v. daily, free 0.4 mg/kg, micellar 1 mg/kg): 58.1%
tumor volume (4T1 breast cancer; day 8, i.v. daily, free 0.4 mg/kg, micellar 1 mg/kg, control 902.5±153): 380±52.3 mm^3
CD31 loci in treated tumors (angiogenesis in vivo) (CD31): attenuation of a number of CD31 loci

O=c1[nH]c2ccccc2n1C1CCN(Cc2ccc(-c3nc4cc5[nH]cnc5cc4nc3-c3ccccc3)cc2)CC1 [Akt kinase inhibitor VIII, reference compound]
loss of viability in Akt1-expressing fibroblasts compared to Akt1-3 triple knockout cells [3]: comparable
synergy with oligomycin, antimycin A and rotenone in inducing cell death (cells): synergized
inhibition of cancer cell migration (human cancer cells; transwell / wound healing models): lack thereof

CC1=NN(C(=O)c2ccc(Cl)cc2)C(=O)C1N=Nc1ccc(S(=O)(=O)Nc2ncccn2)cc1 (centres unmarked) [NSC 348900, 4-[1-(4-chlorobenzoyl)-3-methyl-5-oxo-4,5-dihydro-1H-pyrazol-4-ylazo]-N-pyrimidine-2-yl-benzenesulfonamide]
interaction with PH domains of Akt, PDK1, and IRS1 [4]: capable of interacting
in vivo anti-tumor activity [5]: lacked in vivo anti-tumor activity

B1: TRAIL: Tumor necrosis factor (TNF)-related apoptosis-inducing ligand, 281 amino acid-long member of the TNF family of cytokines (protein, UniProt P50591 1-281, looked up)
chain: MAMMEVQGGPSLGQTCVLIVIFTVLLQSLCVAVTYVYFTNELKQMQDKYSKSGIACFLKEDDSYWDPNDEESMNSPCWQVKWQLRQLVRKMILRTSEETISTVQEKQQNISPLVRERGPQRVAAHITGTRGRSNTLSSPNSKNEKALGRKINSWESSRSGHSFLSNLHLRNGELVIHEKGFYYIYSQTYFRFQEEIKENTKNDKQMVQYIYKYTSYPDPILLMKSARNSCWSKDAEYGLYSIYQGGIFELKENDRIFVSVTNEHLIDMDHEASFFGAFLVG
modifications: full-length
notes: Tumor necrosis factor (TNF)-related apoptosis-inducing ligand, 281 amino acid-long member of the TNF family of cytokines
sensitivity of U87MG cells to TRAIL alone (U87MG cells [6]): entirely resistant
